According to patent US20250066344A1 (BRISTOL-MYERS SQUIBB COMPANY, priority 2021, published 2025):

target: T1, human RXFP1 (Homo sapiens, UniProt Q9HBX9); test: RXFP1 cyclic adenosine monophosphate (cAMP) assay, hRXFP1 HEK293; format: cell-based; conditions: HEK293 cells stably expressing human RXFP1; 30 min at room temperature; HTRF cAMP
T1 construct: expressed in transfected cells
T1 sequence (Q9HBX9 1-757): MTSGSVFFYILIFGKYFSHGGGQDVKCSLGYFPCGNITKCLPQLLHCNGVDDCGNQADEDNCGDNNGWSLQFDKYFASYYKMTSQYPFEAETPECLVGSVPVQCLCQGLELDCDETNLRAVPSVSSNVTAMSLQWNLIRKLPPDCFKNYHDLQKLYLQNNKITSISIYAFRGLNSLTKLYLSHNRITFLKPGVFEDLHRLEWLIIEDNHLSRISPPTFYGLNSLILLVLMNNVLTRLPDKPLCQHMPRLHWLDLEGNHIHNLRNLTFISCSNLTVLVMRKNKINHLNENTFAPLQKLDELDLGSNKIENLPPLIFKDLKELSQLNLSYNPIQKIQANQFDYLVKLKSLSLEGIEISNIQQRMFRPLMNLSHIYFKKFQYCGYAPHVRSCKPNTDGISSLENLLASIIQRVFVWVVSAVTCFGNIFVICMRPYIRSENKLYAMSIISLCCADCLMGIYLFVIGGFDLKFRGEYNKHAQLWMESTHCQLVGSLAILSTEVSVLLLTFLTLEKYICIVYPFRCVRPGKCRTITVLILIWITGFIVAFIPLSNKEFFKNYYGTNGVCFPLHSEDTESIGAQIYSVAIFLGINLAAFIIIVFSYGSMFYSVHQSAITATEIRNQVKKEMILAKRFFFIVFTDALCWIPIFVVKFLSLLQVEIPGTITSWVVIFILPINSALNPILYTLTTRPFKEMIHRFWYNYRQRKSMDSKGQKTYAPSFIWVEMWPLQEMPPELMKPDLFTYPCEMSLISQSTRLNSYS
Outline: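 HEK293 cells stably expressing human RXFP1 were exposed to compounds (0.010 nM–50 μM, 2% DMSO) for 30 min at room temperature in HBSS/HEPES buffer with 0.5 mM IBMX. Intracellular cAMP was measured by HTRF against a cAMP standard curve; EC50 from 4-parameter logistic fit.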

SMILES | EC50
COc1ccc(-c2ccc3c(c2)CCNC3)cc1C(=O)Nc1cc2c(cc1C(=O)Nc1ccc(F)c(C(F)(F)F)c1)OC(F)(F)O2 [Example 93, 2,2-difluoro-N-(4-fluoro-3-(trifluoromethyl)phenyl)-6-(2-methoxy-5-(1,2,3,4-tetrahydroisoquinolin-6-yl)benzamido)benzo[d] [1,3]dioxole-5-carboxamide] | 1090 nM
COc1cc(F)c(C2=NOC3CC(CO)CC23)cc1C(=O)Nc1cc2c(cc1C(=O)Nc1ccc(F)c(C(F)(F)F)c1)OC(F)(F)O2 (stereo not drawn) [Example 102, 2,2-difluoro-N-(4-fluoro-3-(trifluoromethyl)phenyl)-6-(4-fluoro-5-(5-(hydroxymethyl)-3a,5,6,6a-tetrahydro-4H-cyclopenta[d]isoxazol-3-yl)-2-methoxybenzamido) benzo[d][1,3]dioxole-5-carboxamide] | 10.6 nM
COc1ccc(-c2nc3c(s2)CN(CC(N)=O)CC3)cc1C(=O)Nc1cc2c(cc1C(=O)Nc1ccc(F)c(C(F)(F)F)c1)OC(F)(F)O2 [Example 53, 6-(5-(5-(2-amino-2-oxoethyl)-4,5,6,7-tetrahydrothiazolo[5,4-c]pyridin-2-yl)-2-methoxybenzamido)-2,2-difluoro-N-(4-fluoro-3-(trifluoromethyl)phenyl)benzo[d][1,3]dioxole-5-carboxamide] | 33 nM
COc1ccc(C2=NOC3(COC(=O)C3)C2)cc1C(=O)Nc1cc2c(cc1C(=O)Nc1ccc(F)c(C(F)(F)F)c1)OC(F)(F)O2 (stereo not drawn) [Example 78, 2,2-difluoro-N-(4-fluoro-3-(trifluoromethyl)phenyl)-6-(2-methoxy-5-(8-oxo-1,7-dioxa-2-azaspiro[4.4]non-2-en-3-yl)benzamido)benzo[d] [1,3]dioxole-5-carboxamide] | 262 nM
COc1ccc(C(=O)N2CC[C@@H](O)C2)cc1C(=O)Nc1cc2c(cc1C(=O)Nc1ccc(F)c(C(F)(F)F)c1)OC(F)(F)O2 [Example 40, (R)-2,2-difluoro-N-(4-fluoro-3-(trifluoromethyl)phenyl)-6-(5-(3-hydroxypyrrolidine-1-carbonyl)-2-methoxybenzamido) benzo[d][1,3]dioxole-5-carboxamide] | 196 nM
COc1ccc(-c2cc(C(=O)Nc3cc[nH]n3)ccc2F)cc1C(=O)Nc1cc2c(cc1C(=O)Nc1ccc(F)c(C(F)(F)F)c1)OC(F)(F)O2 [Example 48] | 196 nM
COc1ccc(C2=NOC3CC(O)CC23)cc1C(=O)Nc1cc2nc(C)sc2cc1C(=O)Nc1ccc(F)c(C(F)(F)F)c1 (single isomer, unassigned) [Example 24, N-(4-fluoro-3-(trifluoro-methyl)phen-yl)-5-(5-(5-hydroxy-3a,5,6,6a-tetrahydro-4H-cyclopenta [d]isoxazol-3-yl)-2-methoxy-benzamido)-2-methylbenzo [d]thiazole-6-carboxamide] | 750 nM
COc1ccc(-c2cnc3n2CCNC3)cc1C(=O)Nc1cc2c(cc1C(=O)Nc1ccc(F)c(C(F)(F)F)c1)OC(F)(F)O2 [Example 62, 2,2-difluoro-N-(4-fluoro-3-(trifluoromethyl)phenyl)-6-(2-methoxy-5-(5,6,7,8-tetrahydroimidazo[1,2-a]pyrazin-3-yl)benzamido)benzo[d] [1,3]dioxole-5-carboxamide] | 646 nM
COc1ccc(-c2cnc3n2CCN(CC(N)=O)C3)cc1C(=O)Nc1cc2c(cc1C(=O)Nc1ccc(F)c(C(F)(F)F)c1)OC(F)(F)O2 [Example 82, 6-(5-(7-(2-amino-2-oxoethyl)-5,6,7,8-tetrahydroimidazo[1,2-a]pyrazin-3-yl)-2-methoxybenzamido)-2,2-difluoro-N-(4-fluoro-3-(trifluoromethyl)phenyl) benzo[d][1,3]dioxole-5-carboxamide] | 144 nM
COc1ccc(-c2cc(S(=O)(=O)NC(C)(C)C)ccc2F)cc1C(=O)Nc1cc2c(cc1C(=O)Nc1ccc(F)c(C(F)(F)F)c1)OC(F)(F)O2 [Example 64, 6-(5′-(N-(tert-butyl)sulfamoyl)-2′-fluoro-4-methoxy-{1,1′-biphenyl]-3-carboxamido)-2,2-difluoro-N-(4-fluoro-3-(trifluoromethyl)phenyl) benzo[d][1,3]dioxole-5-carboxamide] | 37 nM
COc1ccc(C2=NOC3CS(=O)(=O)CC23)cc1C(=O)Nc1cc2c(cc1C(=O)Nc1ccc(F)c(C(F)(F)F)c1)OC(F)(F)O2 (stereo not drawn) [Example 65, 6-(5-(5,5-dioxido-3a,4,6,6a-tetrahydrothieno[3,4-d]isoxazol-3-yl)-2-methoxybenzamido)-2,2-difluoro-N-(4-fluoro-3-(trifluoromethyl)phenyl) benzo[d][1,3]dioxole-5-carboxamide] | 285 nM
COc1cc(F)c(C(=O)NCC2(S(C)(=O)=O)CC2)cc1C(=O)Nc1cc2c(cc1C(=O)Nc1ccc(F)c(C(F)(F)F)c1)OC(F)(F)O2 [Example 36, N1-(2,2-difluoro-6-((4-fluoro-3-(trifluoromethyl)phenyl)carbamoyl)benzo[d] [1,3]dioxol-5-yl)-4-fluoro-6-methoxy-N3-((1-(methylsulfonyl)cyclopropyl)methyl)iso-phthalamide] | 14 nM
COc1ccc(S(=O)(=O)N2CCOC[C@@H]2CO)cc1C(=O)Nc1cc2nc(C)sc2cc1C(=O)Nc1ccc(F)c(C(F)(F)F)c1 [Example 14, (S)-N-(4-fluoro-3-(tri-fluoromethyl)-phenyl)-5-(5-((3-(hydroxy-methyl)morph-olino)sulfon-yl)-2-methoxy-benzamido)-2-methylbenzo [d]thiazole-6-carboxamide] | 1400 nM
COc1ccc(C2=NOC3CC(N)CC23)cc1C(=O)Nc1cc2c(cc1C(=O)Nc1ccc(F)c(C(F)(F)F)c1)OC(F)(F)O2 (single isomer, unassigned) [Example 50, 6-(5-(5-amino-3a,5,6,6a-tetrahydro-4H-cyclopenta[d]isoxazol-3-yl)-2-methoxybenzamido)-2,2-difluoro-N-(4-fluoro-3-(trifluoromethyl)phenyl)benzo[d][1,3]dioxole-5-carboxamide] | 98 nM
COc1ccc(C(=O)N2CCCC(CO)C2)cc1C(=O)Nc1cc2c(cc1C(=O)Nc1ccc(F)c(C(F)(F)F)c1)OC(F)(F)O2 (stereo not drawn) [Example 37, 2,2-difluoro-N-(4-fluoro-3-(trifluoromethyl)phenyl)-6-(5-(3-(hydroxymethyl)piperidine-1-carbonyl)-2-methoxybenzamido) benzo[d][1,3]dioxole-5-carboxamide] | 56 nM
COc1ccc(C2=NOC3C(O)CC(O)C23)cc1C(=O)Nc1cc2nc(C)sc2cc1C(=O)Nc1ccc(F)c(C(F)(F)F)c1 (stereo not drawn) [Example 7, 5-(5-(4,6-dihydroxy-3a,5,6,6a-tetra-hydro-4H-cyclopenta[d]isoxazol-3-yl)-2-methoxy-benzamido)-N-(4-fluoro-3-(trifluorometh-yl)phenyl)-2-methylbenzo [d]thiazole-6-carboxamide] | 31 nM
COc1ccc(C#CC(C)(C)O)cc1C(=O)Nc1cc2c(cc1C(=O)Nc1ccc(F)c(C(F)(F)F)c1)OC(F)(F)O2 [Example 58, 2,2-difluoro-N-(4-fluoro-3-(trifluoromethyl)phenyl)-6-(5-(3-hydroxy-3-methylbut-1-yn-1-yl)-2-methoxybenzamido) benzo[d][1,3]dioxole-5-carboxamide] | 1060 nM
COc1ccc(-c2nc3c(s2)CNCC3)cc1C(=O)Nc1cc2c(cc1C(=O)Nc1ccc(F)c(C(F)(F)F)c1)OC(F)(F)O2 [Example 52, 2,2-difluoro-N-(4-fluoro-3-(trifluoromethyl)phenyl)-6-(2-methoxy-5-(4,5,6,7-tetrahydrothiazolo[5,4-c]pyridin-2-yl)benzamido)benzo[d][1,3]dioxole-5-carboxamide] | 683 nM
COc1ccc(C2=NOC3CS(=O)(=O)CC23)cc1C(=O)Nc1cc2c(cc1C(=O)Nc1ccc(F)c(C(F)(F)F)c1)OC(F)(F)O2 (single isomer, unassigned) [Example 61, 6-(5-(5,5-dioxido-3a,4,6,6a-tetrahydrothieno[3,4-d]isoxazol-3-yl)-2-methoxybenzamido)-2,2-difluoro-N-(4-fluoro-3-(trifluoromethyl)phenyl) benzo[d][1,3]dioxole-5-carboxamide] | 17 nM
COc1ccc(C2=NOC3CC(COP(=O)(O)O)CC23)cc1C(=O)Nc1cc2nc(C)sc2cc1C(=O)Nc1ccc(F)c(C(F)(F)F)c1 (stereo not drawn) [Example 9, (3-(3-((6-((4-fluoro-3-(trifluorometh-yl)phenyl)car-bamoyl)-2-methylbenzo [d]thiazol-5-yl)carbamo-yl)-4-meth-oxyphenyl)-3a,5,6,6a-tetra-hydro-4H-cyclopenta[d]isoxazol-5-yl)methyldi-hydrogen phosphate] | 110 nM
COc1ccc(C2=NOC3C4CC(C(=O)N4)C23)cc1C(=O)Nc1cc2nc(C)sc2cc1C(=O)Nc1ccc(F)c(C(F)(F)F)c1 (stereo not drawn) [Example 15, N-(4-fluoro-3-(trifluoro-methyl)phen-yl)-5-(2-meth-oxy-5-(5-oxo-3a,4,5,6,7,7a-hexahydro-4,7-methano-isoxazolo[5,4-c]pyridin-3-yl)benzami-do)-2-methyl-benzo[d]thi-azole-6-car-boxamide] | 180 nM
